What was measured:
[1] = Ocular tissue concentrations, 0.3% Compound-I Tris-based suspension twice daily 30 days; type: in vivo, Dutch-Belted rabbits; settings: Dutch-Belted, rabbit, topical
[2] = Ocular fluid and tissue concentrations, 0.4% Compound-I cyclodextrin solutions (Example 7, 24-day study); type: in vivo, Dutch-Belted rabbits; settings: Dutch-Belted, rabbit, topical
Experimental: The ocular solution of Compound-I comprising cyclodextrin was prepared and tested in different groups of animals.

With `Cl.NC(=O)c1c(OCc2c(F)cc(Br)cc2F)nsc1NC(=O)NCCCCN1CCCC1` [Compound-I, 3-[(4-bromo-2,6-difluorophenyl)methoxy]-5-[[[[4-(1-pyrrolidinyl)butyl]amino]carbonyl]amino]-4-isothiazolecarboxamide hydrochloride] as the compound, how does the concentration at 1 h ([1]; aqueous humor, 0.3% Tris-based suspensions with and without benzylalkonium chloride, twice daily, 1 hour after first daily dose on day 30, read-out: Mean ocular tissue concentration, aqueous humor) read?
The concentration at 1 h was 1.27 to 1.45 nM.

And the concentration at 1 h ([1]; central choroid, 0.3 % w/v, 0.3% Tris Suspension, Twice Daily 30 days, read-out: Central Choroid [Compound I])?
Its concentration at 1 h is 319 nM.

And the concentration at 1 h ([1]; central choroid, 0.3% Tris-based suspensions with and without benzylalkonium chloride, twice daily, 1 hour after first daily dose on day 30, read-out: Mean ocular tissue concentration, central choroid)?
The concentration at 1 h was 303 to 319 nM.

And the concentration at 1 h ([1]; central retina, 0.3% Tris-based suspensions with and without benzylalkonium chloride, twice daily, 1 hour after first daily dose on day 30, read-out: Mean ocular tissue concentration, central retina)?
The concentration at 1 h was 49.5 to 59.2 nM.

And the concentration at 1 h ([1]; cornea, 0.3 % w/v, 0.3% Tris Suspension, Twice Daily 30 days, read-out: Cornea [Compound I])?
Its concentration at 1 h is 2690 nM.

What about the concentration at 1 h ([1]; cornea, 0.3% Tris-based suspensions with and without benzylalkonium chloride, twice daily, 1 hour after first daily dose on day 30, read-out: Mean ocular tissue concentration, cornea) of the same compound?
The concentration at 1 h was 2690 to 3100 nM.

What about the concentration at 1 h ([1]; peripheral choroid, 0.3% Tris-based suspensions with and without benzylalkonium chloride, twice daily, 1 hour after first daily dose on day 30, read-out: Mean ocular tissue concentration, peripheral choroid) of the same compound?
Its concentration at 1 h is 781 to 1210 nM.

And the concentration at 1 h ([1]; peripheral retina, 0.3% Tris-based suspensions with and without benzylalkonium chloride, twice daily, 1 hour after first daily dose on day 30, read-out: Mean ocular tissue concentration, peripheral retina)?
Its concentration at 1 h is 81.9 to 86.8 nM.

And the concentration at 1 h ([2]; aqueous humor, 0.4 % (4 mg/mL), 30 μL/eye, Average concentration of Compound-I, Aqueous Humor, Group 8: 0.4% Compound-I in 8.41% KLEPTOSE HPB, 0.142% phosphate, 30 μL/eye, 2 doses per day)?
The concentration at 1 h was 6.56 nM.

And the concentration at 1 h ([2]; aqueous humor, 0.4 % (4 mg/mL), 30 μL/eye, Average concentration of Compound-I, Aqueous Humor, Group 9: 0.4% Compound-I in […] KLEPTOSE HPB, 0.142% phosphate, 30 μL/eye, 2 doses per day)?
Its concentration at 1 h is 3.13 nM.

What about the concentration at 1 h ([2]; aqueous humor, 0.4 % (4 mg/mL), 30 μL/eye, Average concentration of Compound-I, Aqueous Humor, Group 10: 0.4% Compound-I in 4.88% CAPTISOL, 0.142% phosphate, 30 μL/eye, 2 doses per day) of the same compound?
The concentration at 1 h was 1.84 nM.

And the concentration at 1 h ([2]; aqueous humor, 0.4 % (4 mg/mL), 30 μL/eye, Average concentration of Compound-I, Aqueous Humor, Group 11: 0.4% Compound-I in 4.88% CAPTISOL, […] phosphate, 30 μL/eye, 2 doses per day)?
The concentration at 1 h was 4.03 nM.

And the concentration at 1 h ([2]; aqueous humor, 0.4 %, Aqueous humor concentration of Compound-I (range over groups), 0.4% Compound-I cyclodextrin solutions (KLEPTOSE or CAPTISOL), twice daily)?
Its concentration at 1 h is 3.13 to 6.56 nM.

And the concentration at 1 h ([2]; central choroid, 0.4 %)?
Its concentration at 1 h is 259 to 769 nM.

And the concentration at 1 h ([2]; central choroid, 0.4 % (4 mg/mL), 0.4% Ophthalmic Solution (CAPTISOL), Twice Daily 24 days, read-out: Central Choroid [Compound I])?
Its concentration at 1 h is 212 nM.

And the concentration at 1 h ([2]; central choroid, 0.4 % (4 mg/mL), 0.4% Ophthalmic Solution (KLEPTOSE HP), Twice Daily 24 days, read-out: Central Choroid [Compound I])?
The concentration at 1 h was 259 nM.

What about the concentration at 1 h ([2]; central choroid, 0.4 % (4 mg/mL), 0.4% Ophthalmic Solution (KLEPTOSE HPB), Twice Daily 24 days, read-out: Central Choroid [Compound I]) of the same compound?
The concentration at 1 h was 769 nM.

What about the concentration at 1 h ([2]; central choroid, 0.4 % (4 mg/mL), 30 μL/eye, Average concentration of Compound-I, Central Choroid, Group 8: 0.4% Compound-I in 8.41% KLEPTOSE HPB, 0.142% phosphate, 30 μL/eye, 2 doses per day) of the same compound?
Its concentration at 1 h is 769 nM.

What about the concentration at 1 h ([2]; central choroid, 0.4 % (4 mg/mL), 30 μL/eye, Average concentration of Compound-I, Central Choroid, Group 9: 0.4% Compound-I in […] KLEPTOSE HPB, 0.142% phosphate, 30 μL/eye, 2 doses per day) of the same compound?
Its concentration at 1 h is 259 nM.

What about the concentration at 1 h ([2]; central choroid, 0.4 % (4 mg/mL), 30 μL/eye, Average concentration of Compound-I, Central Choroid, Group 10: 0.4% Compound-I in 4.88% CAPTISOL, 0.142% phosphate, 30 μL/eye, 2 doses per day) of the same compound?
The concentration at 1 h was 212 nM.

What about the concentration at 1 h ([2]; central choroid, 0.4 % (4 mg/mL), 30 μL/eye, Average concentration of Compound-I, Central Choroid, Group 11: 0.4% Compound-I in 4.88% CAPTISOL, […] phosphate, 30 μL/eye, 2 doses per day) of the same compound?
The concentration at 1 h was 345 nM.

And the concentration at 1 h ([2]; central retina, 0.4 % (4 mg/mL), 30 μL/eye, Average concentration of Compound-I, Central Retina, Group 8: 0.4% Compound-I in 8.41% KLEPTOSE HPB, 0.142% phosphate, 30 μL/eye, 2 doses per day)?
Its concentration at 1 h is 124 nM.

And the concentration at 1 h ([2]; central retina, 0.4 % (4 mg/mL), 30 μL/eye, Average concentration of Compound-I, Central Retina, Group 9: 0.4% Compound-I in […] KLEPTOSE HPB, 0.142% phosphate, 30 μL/eye, 2 doses per day)?
Its concentration at 1 h is 74.1 nM.

What about the concentration at 1 h ([2]; central retina, 0.4 % (4 mg/mL), 30 μL/eye, Average concentration of Compound-I, Central Retina, Group 10: 0.4% Compound-I in 4.88% CAPTISOL, 0.142% phosphate, 30 μL/eye, 2 doses per day) of the same compound?
Its concentration at 1 h is 53.1 nM.

What about the concentration at 1 h ([2]; central retina, 0.4 % (4 mg/mL), 30 μL/eye, Average concentration of Compound-I, Central Retina, Group 11: 0.4% Compound-I in 4.88% CAPTISOL, […] phosphate, 30 μL/eye, 2 doses per day) of the same compound?
The concentration at 1 h was 101 nM.

And the concentration at 1 h ([2]; central retina, 0.4 %, Central retina concentration of Compound-I (range over groups), 0.4% Compound-I cyclodextrin solutions (KLEPTOSE or CAPTISOL), twice daily)?
Its concentration at 1 h is 53.1 to 124 nM.

What about the concentration at 1 h ([2]; cornea, 0.4 %) of the same compound?
The concentration at 1 h was 6490 to 30000 nM.

And the concentration at 1 h ([2]; cornea, 0.4 % (4 mg/mL), 0.4% Ophthalmic Solution (CAPTISOL), Twice Daily 24 days, read-out: Cornea [Compound I])?
The concentration at 1 h was 6490 nM.

What about the concentration at 1 h ([2]; cornea, 0.4 % (4 mg/mL), 0.4% Ophthalmic Solution (KLEPTOSE HP), Twice Daily 24 days, read-out: Cornea [Compound I]) of the same compound?
Its concentration at 1 h is 8050 nM.

What about the concentration at 1 h ([2]; cornea, 0.4 % (4 mg/mL), 0.4% Ophthalmic Solution (KLEPTOSE HPB), Twice Daily 24 days, read-out: Cornea [Compound I]) of the same compound?
Its concentration at 1 h is 12300 nM.

What about the concentration at 1 h ([2]; cornea, 0.4 % (4 mg/mL), 30 μL/eye, Average concentration of Compound-I, Cornea, Group 8: 0.4% Compound-I in 8.41% KLEPTOSE HPB, 0.142% phosphate, 30 μL/eye, 2 doses per day) of the same compound?
The concentration at 1 h was 12300 nM.

And the concentration at 1 h ([2]; cornea, 0.4 % (4 mg/mL), 30 μL/eye, Average concentration of Compound-I, Cornea, Group 9: 0.4% Compound-I in […] KLEPTOSE HPB, 0.142% phosphate, 30 μL/eye, 2 doses per day)?
Its concentration at 1 h is 8050 nM.

And the concentration at 1 h ([2]; cornea, 0.4 % (4 mg/mL), 30 μL/eye, Average concentration of Compound-I, Cornea, Group 10: 0.4% Compound-I in 4.88% CAPTISOL, 0.142% phosphate, 30 μL/eye, 2 doses per day)?
Its concentration at 1 h is 6490 nM.

Reference: patent US9446026B2, “Ocular formulations for drug-delivery to the posterior segment of the eye” (PanOptica, Inc., priority 2013, dated 2016)
